Assay results reported in patent publication US20240009269A1 (priority 2020, published 2024).

Experiments:
[1] = test system: dhBMECs; assay: Cytotoxicity assay (EthD1/Hoechst live-cell imaging), dhBMECs; format: cell-based, human; conditions: for exposure time maintaining high cell viability: phase diagrams of dhBMECs and HCNs, 98% viability
Experimental: DhBMECs were seeded on polystyrene 96-well plate, coated with 25 μg mL^−1 fibronectin and 50 μg mL^−1 collagen IV, at 2×10^5 cells cm^−2 in BBB induction medium. On day 1, the cells were washed twice with BBB maintenance medium with gentle pipetting up-and-down to remove non-adherent cells and incubated in the medium overnight. HCN2 cells were seeded in the tissue culture-treated 96-well plate at 3×10^3 cell cm^−2 in HCN2 cell culture medium and cultured for two days at 37° C., 5% CO2, with the medium change on day 1 after the seeding. The cytotoxicity assay was performed on day 2 after seeding. Briefly, in the cytotoxicity assay, the cells were incubated with two dyes: a membrane-impermeable Ethidium homodimer-1 (EthD1, L3224, Thermo Fisher Scientific) to assess cell viability, and Hoechst 33342 nuclear stain (Cat. No. 62249, Thermo Fisher Scientific) and imaged on an epifluorescence microscope. In more detail, the cells were washed with BBB maintenance medium followed by incubation with 200 μL of 2 μg mL^−1 Hoechst 33342 and 10 μM EthD1 solution for 15-30 minutes at 37° C., 5% CO2. After the incubation, 100 μL of the solutions were replaced with Hoechst 33342 and EthD1 solutions containing melittin using a multichannel pipettor, resulting in final 0.75 μM, 5 μM, and 10 μM melittin concentrations. After the addition of treatment solutions, large 6×6 epifluorescence images were collected every ˜3.5 minutes per condition using a 20×objective and a Nikon Eclipse TiE microscope, equipped with 37° C. chamber, for 60-90 minutes. Out-of-focus portions of images were manually blacked out using ImageJ. Afterwards, the images were analyzed using a custom pipeline in image analysis software CellProfiler 3.1.8 to count Hoechst-positive objects (all cells) and EhtD1-positive objects (dead cells). The fraction of viable cells (F) was calculated using equation 2 below:
where N(EthD1)i is the number of EthD1-positive objects at time i, N(EthD1)o is the number of EthD1-positive objects at time t=2 minutes (initial time of imaging), N(Hoechst)max is the maximum number of Hoechst-positive objects counted in an image over the imaging time-course. For dhBMECs, the experiments were repeated a total of five times with two independent iPSC differentiations. In the experiment, all media removal was done by gentle pipetting and not aspiration by vacuum. For HCN2 cells, the experiments were performed a total of three times on day 2 and day 3 after seeding.

[2] = test system: mouse brain; assay: Safety of BBBO in mice (neurological deficits, MRI, histology); format: in vivo
Experimental: 273-285] in ImageJ. […] Subsequently, animals were sacrificed for further histological assessment.
In brief, each post-contrast image was first fitted into two Gaussian distributions, and the cutoff of signal intensity was determined. Data analysis and calculation of area fraction was performed using custom-written MATLAB scripts. 24 hours and 7 days after melittin treatment, animals were trans-cardially perfused with 5% sucrose in deionized water and then 4% paraformaldehyde in phosphate buffered saline. The brains were cryopreserved in 30% sucrose and cryo-sectioned in 30 μm slices. Primary antibodies used in the study are described in Table 2. Goat anti-rabbit Alexa Fluor-488 or Alexa Fluor-594 (1:250, Life Technologies) were used as secondary antibodies for fluorescence assessment using an inverted microscope (Zeiss, Axio Observer Z1). For demyelination assessment, eriochrome cyanine R staining was performed as described previously [Golubczyk, D., et al., Mol Neurobiol, 2019. 56(8): p. 5740-5748] with assessment using bright-field microscopy. Quantitation of immunohistochemistry (based on relative fluorescence intensity) and MRI analysis (based on intensity) were performed using Image J. For each mouse, three ROIs of the ipsilateral and contralateral BBBO regions were drawn, respectively.

[3] = test system: mice; conditions: intraperitoneal administration; cited from earlier work

## CC[C@H](C)[C@H](NC(=O)CN)C(=O)NCC(=O)N[C@@H](C)C(=O)N[C@H](C(=O)N[C@@H](CC(C)C)C(=O)N[C@@H](CCCCN)C(=O)N[C@H](C(=O)N[C@@H](CC(C)C)C(=O)N[C@H](C(=O)N[C@H](C(=O)NCC(=O)N[C@@H](CC(C)C)C(=O)N1CCC[C@H]1C(=O)N[C@@H](C)C(=O)N[C@@H](CC(C)C)C(=O)N[C@H](C(=O)N[C@@H](CO)C(=O)N[C@@H](Cc1c[nH]c2ccccc12)C(=O)N[C@H](C(=O)N[C@@H](CCCCN)C(=O)N[C@@H](CCCNC(=N)N)C(=O)N[C@@H](CCCCN)C(=O)N[C@@H](CCCNC(=N)N)C(=O)N[C@@H](CCC(N)=O)C(=O)N[C@@H](CCC(N)=O)C(N)=O)[C@@H](C)CC)[C@@H](C)CC)[C@@H](C)O)[C@@H](C)O)C(C)C)C(C)C [melittin]
[1]; 0.75 μM melittin
  exposure time maintaining high cell viability: ≥ 20 min
[1]; 5 μM melittin
  time for which viability is largely unaffected: about 20 minutes
[1]; 5 μM melittin, continuous exposure
  time at which the viability reached 50% (τ1/2): ~40 min
[1]; 10 μM melittin
  exposure time maintaining high cell viability: ≤ 10 min
[1]; dose of 100 μM·minute
  decrease of viability: < 2%
[2]; 3 μM·minute
  long-term survival (30 days): reached that endpoint without complications
[2]; 3 μM·minute, 11 mice
  mortality: One mouse in this group died within 12 hours
  neurological deficits (paralysis, seizure, or rotation): all animals except one woke up from anesthesia without apparent neurological deficits
[2]; 3 μM·minute, 24 hours
  GFAP, Iba1, NeuN, and caspase-3 intensities between hemispheres: not statistically different
  MRI (T2, SWI): no evidence of edema or inflammation on T2 scans or micro-hemorrhages on susceptibility weighted imaging (SWI) scans
[2]; 3 μM·minute, 7 days
  GFAP and Iba1 intensity, ipsilateral vs contralateral: no statistically significant differences
  MRI: no abnormalities were detected
  NeuN and caspase-3 intensity in the ipsilateral hemisphere: no statistically significant change
[2]; 3 μM·minute, 7 days, hippocampus
  eriochrome cyanine staining (myelin): normal myelin
[2]; 5 μM·minute
  behavior after dosing: mice displayed rotational behavior indicating neurological damage
[3]
  LD50: 3.2 mg/kg
